Measurements published in US20230092890A1, “1, 3, 4-Oxadiazole derivative compounds as histone deacetylase 6 inhibitor, and the pharmaceutical composition comprising the same” (Chong Kun Dang Pharmaceutical Corp., priority 2019, published 2023).

Columns and labels:
HDAC6 human recombinant = target: T1, HDAC6 human recombinant (Homo sapiens, UniProt Q9UBN7); test: HDAC enzyme activity inhibition (in vitro), HDAC6 assay; assay type: biochemical; details: samples at 0.1, 1, 10, 100 and 1000 nM; 37° C. 60 minutes; fluorescence Ex 390, Em 460; read-out: HDAC6 IC50
T1 construct: purchased Calbiochem 382180
T1 sequence (Q9UBN7 1-1215): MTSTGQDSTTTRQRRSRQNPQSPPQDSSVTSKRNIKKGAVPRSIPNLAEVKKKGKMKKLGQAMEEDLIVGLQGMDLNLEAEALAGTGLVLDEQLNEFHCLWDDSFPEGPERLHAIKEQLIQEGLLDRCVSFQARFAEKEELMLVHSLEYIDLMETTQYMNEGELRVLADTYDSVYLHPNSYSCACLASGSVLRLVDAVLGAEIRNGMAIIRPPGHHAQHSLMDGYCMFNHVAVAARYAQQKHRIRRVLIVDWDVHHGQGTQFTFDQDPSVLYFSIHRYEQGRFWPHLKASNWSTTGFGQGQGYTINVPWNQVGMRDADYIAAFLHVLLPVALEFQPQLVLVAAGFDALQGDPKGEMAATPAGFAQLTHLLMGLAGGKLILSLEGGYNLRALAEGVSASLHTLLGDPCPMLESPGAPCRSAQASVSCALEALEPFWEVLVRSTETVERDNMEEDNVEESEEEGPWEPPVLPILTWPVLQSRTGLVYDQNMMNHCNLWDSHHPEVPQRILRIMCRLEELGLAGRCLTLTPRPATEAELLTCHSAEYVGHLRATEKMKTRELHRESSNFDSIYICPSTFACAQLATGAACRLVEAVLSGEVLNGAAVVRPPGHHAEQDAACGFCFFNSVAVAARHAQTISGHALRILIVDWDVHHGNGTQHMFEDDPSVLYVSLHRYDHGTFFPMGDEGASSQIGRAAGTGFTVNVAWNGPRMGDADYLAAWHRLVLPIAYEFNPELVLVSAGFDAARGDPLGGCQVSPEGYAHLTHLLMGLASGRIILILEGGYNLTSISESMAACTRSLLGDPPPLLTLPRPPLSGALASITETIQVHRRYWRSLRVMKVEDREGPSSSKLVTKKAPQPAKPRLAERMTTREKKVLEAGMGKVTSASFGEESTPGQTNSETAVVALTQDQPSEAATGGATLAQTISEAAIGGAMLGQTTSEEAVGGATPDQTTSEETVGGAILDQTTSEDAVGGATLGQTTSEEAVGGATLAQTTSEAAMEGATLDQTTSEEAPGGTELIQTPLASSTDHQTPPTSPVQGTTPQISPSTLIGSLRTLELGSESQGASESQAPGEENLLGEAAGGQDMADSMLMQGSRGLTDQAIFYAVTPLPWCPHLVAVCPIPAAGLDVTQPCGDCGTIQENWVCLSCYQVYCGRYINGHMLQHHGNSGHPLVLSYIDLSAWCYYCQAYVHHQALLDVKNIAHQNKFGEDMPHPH
Summary of the method: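 Fluorescence (Ex 390, Em 460) read after a 37° C, 60 min enzyme reaction and a further 30 min developer step at 37° C. Uses recombinant human HDAC6; HDAC1 arm dosed at 100, 1000, 10000 nM.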

HDAC1 = target: T2, HDAC1 (Homo sapiens, UniProt Q13547); test: HDAC enzyme activity inhibition (in vitro), HDAC1 Fluorimetric Drug Discovery Assay Kit; assay type: biochemical; details: samples at 100, 1000 and 10000 nM; 37° C. 60 minutes; fluorescence Ex 390, Em 460; read-out: HDAC1 IC50
T2 construct: purchased Enzolifesciences BML-AK511
T2 sequence (Q13547 whole entry): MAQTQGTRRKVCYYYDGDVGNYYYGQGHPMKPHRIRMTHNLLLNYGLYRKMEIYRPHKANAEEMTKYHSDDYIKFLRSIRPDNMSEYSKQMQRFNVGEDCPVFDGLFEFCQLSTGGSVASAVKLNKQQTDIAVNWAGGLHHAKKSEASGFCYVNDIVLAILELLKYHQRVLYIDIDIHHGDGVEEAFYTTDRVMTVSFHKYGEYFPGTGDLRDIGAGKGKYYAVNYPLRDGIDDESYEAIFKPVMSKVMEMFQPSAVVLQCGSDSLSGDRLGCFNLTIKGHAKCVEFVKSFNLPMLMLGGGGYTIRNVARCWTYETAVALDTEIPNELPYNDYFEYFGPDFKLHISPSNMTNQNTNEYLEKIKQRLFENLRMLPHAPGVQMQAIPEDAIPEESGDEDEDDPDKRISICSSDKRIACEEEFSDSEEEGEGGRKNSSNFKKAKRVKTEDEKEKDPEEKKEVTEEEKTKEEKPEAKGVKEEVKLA
Summary of the method: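 Fluorescence read-out (Ex 390/Em 460) after developer step, 30 min at 37° C, following a 60-min 37° C enzyme reaction. Test concentrations: HDAC1 kit, 100–10000 nM (three levels); recombinant human HDAC6, 0.1–1000 nM (five levels).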

Row | IC50 (HDAC6 human recombinant) | IC50 (HDAC1) | SMILES
1 | 91 nM | > 10000 nM | CC(C)(C)OC(=O)N1CCN(c2cc3oc(=O)n(Cc4ccc(-c5nnc(C(F)F)o5)cn4)c3cc2F)CC1 [Compound 316, tert-butyl 4-(3-((5-(5-(difluoromethyl)-1,3,4-oxadiazole-2-yl)pyridine-2-yl)methyl)-5-fluoro-2-oxo-2,3-dihydrobenzo[d]oxazole-6-yl)piperazine-1-carboxylate]
2 | 94 nM | > 10000 nM | O=c1n(Cc2ccc(-c3nnc(C(F)F)o3)cn2)c2cc(F)c(-c3cccc4[nH]ccc34)cc2n1C1CCN(CC(F)(F)C(F)F)CC1 [Compound 241, 1-((5-(5-(difluoromethyl)-1,3,4-oxadiazole-2-yl)pyridine-2-yl)methyl)-6-fluoro-5-(1H-indole-4-yl)-3-(1-(2,2,3,3-tetrafluoropropyl)piperidine-4-yl)-1,3-dihydro-2H-benzo[d]imidazole-2-one]
3 | 40 nM | > 10000 nM | CN1CCC(n2c(=O)n(Cc3ccc(-c4nnc(C(F)F)o4)cc3F)c3ccc(-c4ccncc4)cc32)CC1 [Compound 161, 1-(4-(5-(difluoromethyl)-1,3,4-oxadiazole-2-yl)-2-fluorobenzyl)-3-(1-methylpiperidine-4-yl)-5-(pyridine-4-yl)-1,3-dihydro-2H-benzo[d]imidazole-2-one]
4 | 161 nM | > 10000 nM | O=c1n(Cc2ccc(-c3nnc(C(F)F)o3)cn2)c2ccccc2n1C1CCS(=O)(=O)CC1 [Compound 13, 1-((5-(5-(difluoromethyl)-1,3,4-oxadiazole-2-yl)pyridine-2-yl)methyl)-3-(1,1-dioxydotetrahydro-2H-thiopyran-4-yl)-1,3-dihydro-2H-benzo[d]imidazole-2-one]
5 | 61 nM | > 10000 nM | Cn1c(=O)n(Cc2ccc(-c3nnc(C(F)F)o3)cn2)c2cc(F)c(N3CCN(C4COC4)CC3)cc21 [Compound 264, 1-((5-(5-(difluoromethyl)-1,3,4-oxadiazole-2-yl)pyridine-2-yl)methyl)-6-fluoro-3-methy 1-5-(4-(oxetan-3-yl)piperazine-1-yl)-1,3-dihydro-2H-benzo[d]imidazole-2-one]
6 | 203 nM | > 10000 nM | CC(C)(C)OC(=O)N1CC=C(c2ccc3c(c2)sc(=O)n3Cc2ccc(-c3nnc(C(F)F)o3)cn2)CC1 [Compound 238, tert-butyl 4-(3-((5-(5-(difluoromethyl)-1,3,4-oxadiazole-2-yl)pyridine-2-yl)methyl)-2-oxo-2,3-dihydrobenzo[d]thiazole-6-yl)-3,6-dihydropyridine-1(2H)-carboxylate]
7 | 950 nM | > 10000 nM | Cc1ccc(-c2ccc3c(c2)n(Cc2ccc(-c4nnc(C(F)F)o4)cc2F)c(=O)n3C2CCN(C)CC2)o1 [Compound 124, 3-(4-(5-(difluoromethyl)-1,3,4-oxadiazole-2-yl)-2-fluorobenzyl)-5-(5-methylfuran-2-yl)-1-(1-methylpiperidine-4-yl)-1,3-dihydro-2H-benzo[d]imidazole-2-one]
8 | 68 nM | > 10000 nM | O=c1n(Cc2ccc(-c3nnc(C(F)F)o3)cn2)c2cc(Cl)ccc2n1C1CCN(CC(F)(F)F)CC1 [Compound 236, 5-chloro-3-((5-(5-(difluoromethyl)-1,3,4-oxadiazole-2-yl)pyridine-2-yl)methyl)-1-(1-(2,2,2-trifluoroethyl)piperidine-4-yl)-1,3-dihydro-2H-benzo[d]imidazole-2-one]
9 | 39 nM | > 10000 nM | CN1CCC(n2c(=O)n(Cc3ccc(-c4nnc(C(F)F)o4)cc3F)c3ccc(-c4ccoc4)cc32)CC1 [Compound 162, 1-(4-(5-(difluoromethyl)-1,3,4-oxadiazole-2-yl)-2-fluorobenzyl)-5-(furan-3-yl)-3-(1-methylpiperidine-4-yl)-1,3-dihydro-2H-benzo[d]imidazole-2-one]
10 | 16 nM | > 10000 nM | CN1CCC(n2c(=O)n(Cc3ccc(-c4nnc(C(F)F)o4)cn3)c3cc(F)c(-c4ccncc4)cc32)CC1 [Compound 153, 1-((5-(5-(difluoromethyl)-1,3,4-oxadiazole-2-yl)pyridine-2-yl)methyl)-6-fluoro-3-(1-methylpiperidine-4-yl)-5-(pyridine-4-yl)-1,3-dihydro-2H-benzo[d]imidazole-2-one]
11 | 70 nM | > 10000 nM | CS(=O)(=O)N1CCC(n2c(=O)n(Cc3ccc(-c4nnc(C(F)F)o4)cc3F)c3ccc(Cl)cc32)CC1 [Compound 201, 5-chloro-1-(4-(5-(difluoromethyl)-1,3,4-oxadiazole-2-yl)-2-fluorobenzyl)-3-(1-(methylsulfonyl)piperidine-4-yl)-1,3-dihydro-2H-benzo[d]imidazole-2-one]
12 | 202 nM | > 10000 nM | CC(=O)N1CCC(n2c(=O)n(Cc3ccc(-c4nnc(C(F)F)o4)cc3F)c3ncccc32)CC1 [Compound 185, 1-(1-acetylpiperidine-4-yl)-3-(4-(5-(difluoromethyl)-1,3,4-oxadiazole-2-yl)-2-fluorobenzyl)-1,3-dihydro-2H-imidazo[4,5-b]pyridine-2-one]
13 | 37 nM | > 10000 nM | CS(=O)(=O)N1CCC(n2c(=O)n(Cc3ccc(-c4nnc(C(F)F)o4)cn3)c3c(F)cccc32)CC1 [Compound 191, 3-((5-(5-(difluoromethyl)-1,3,4-oxadiazole-2-yl)pyridine-2-yl)methyl)-4-fluoro-1-(1-(methylsulfonyl)piperidine-4-yl)-1,3-dihydro-2H-benzo[d]imidazole-2-one]
14 | 36 nM | > 10000 nM | O=c1n(Cc2ccc(-c3nnc(C(F)F)o3)cn2)c2cc(F)c(F)cc2n1C1CCN(C2COC2)CC1 [Compound 84, 1-((5-(5-(difluoromethyl)-1,3,4-oxadiazole-2-yl)pyridine-2-yl)methyl)-5,6-difluoro-3-(1-(oxetan-3-yl)piperidine-4-yl)-1,3-dihydro-2H-benzo[d]imidazole-2-one]
15 | 602 nM | > 10000 nM | CN1CCC(n2c(=O)n(Cc3ccc(-c4nnc(C(F)F)o4)cc3F)c3cc(-c4cccnc4)ccc32)CC1 [Compound 125, 3-(4-(5-(difluoromethyl)-1,3,4-oxadiazole-2-yl)-2-fluorobenzyl)-1-(1-methylpiperidine-4-yl)-5-(pyridine-3-yl)-1,3-dihydro-2H-benzo[d]imidazole-2-one]
16 | 39 nM | > 10000 nM | O=c1n(Cc2ccc(-c3nnc(C(F)F)o3)cn2)c2cc(F)ccc2n1C1CCN(C2CCOCC2)CC1 [Compound 55, 3-((5-(5-(difluoromethyl)-1,3,4-oxadiazole-2-yl)pyridine-2-yl)methyl)-5-fluoro-1-(1-(tetrahydro-2H-pyran-4-yl)piperidine-4-yl)-1,3-dihydro-2H-benzo[d]imidazole-2-one]
17 | 203 nM | > 10000 nM | O=c1n(CCN2CCOCC2)c2ccccc2n1Cc1ccc(-c2nnc(C(F)F)o2)cc1F [Compound 2, 1-(4-(5-(difluoromethyl)-1,3,4-oxadiazole-2-yl)-2-fluorobenzyl)-3-(2-morpholinoethyl)-1,3-dihydro-2H-benzo[d]imidazole-2-one]
18 | 31 nM | > 10000 nM | CC(=O)N1CCC(n2c(=O)n(Cc3ccc(-c4nnc(C(F)F)o4)cn3)c3cc(F)ccc32)CC1 [Compound 60, 1-(1-acetylpiperidine-4-yl)-3-((5-(5-(difluoromethyl)-1,3,4-oxadiazole-2-yl)pyridine-2-yl)methyl)-5-fluoro-1,3-dihydro-2H-benzo[d]imidazole-2-one]
